# Marks after values point to notes of the source that are not given here. Square brackets hold non-standard residues; d marks the D form. Peptide text beside a SMILES is read from it. * marks the point of attachment. Phe(4-amidino) = N=C(N)c1ccc(C[C@H](N)C(=O)O)cc1; Phe(4-Cl) = N[C@@H](Cc1ccc(Cl)cc1)C(=O)O; hArg = N=C(N)NCCCC[C@H](N)C(=O)O; Nle = CCCC[C@H](N)C(=O)O; Abu = CC[C@H](N)C(=O)O; PhAc = O=C(Cc1ccccc1)*
# Experiments:
# [1] = tested on: HT-29 human colon cancer xenografts; test: HT-29 human colon cancer xenografts in nude mice: tumor growth; format: in vivo; settings: 10 μg/day s.c., 62 days
# Protocol: HT-29 human colon cancers were transplanted sc. into male nude mice. 19 days after transplantation, the mice were divided into two groups of 10 animals each. and the treatment was started. Mice in the treatment group received single daily injections of Peptide 67 sc. at a dose of 10 μg/day for 62 days, while the control group was injected with the vehicle solvent. Tumors were measured regularly, and tumor volume was calculated. The mice were sacrificed at the end of experiment and tumor weights were measured.
# [2] = tested on: GH-RH receptor isoforms on membrane fractions of human PC-3 prostate tumors; format: binding; settings: general statement
# In short: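 Competitive displacement of [^125I]JV-1-42 from crude membranes of human PC-3 prostate tumours grown as nude-mouse xenografts, with unlabelled peptides at 10^−12 to 10^−6 M. Bound radioactivity in the centrifuged pellet gamma-counted; Ki from Munson–Rodbard analysis. Relative affinity = Ki of reference peptide (JV-1-36 or JV-1-38) / Ki of test antagonist.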
# [3] = tested on: PC-3 human prostate cancer xenografts; test: PC-3 xenografts in nude mice, Experiment 1: tumor growth; format: in vivo
# In short: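 Male nude mice carried s.c. PC-3 hormone-independent prostate tumour fragments on both flanks. Once tumours reached about 50 mm^3, groups of 7–8 mice received vehicle or peptide at 10 μg/day s.c. once daily for 28 days. Tumour volume was measured twice weekly, with tumour weight and serum IGF-I (RIA) taken at day 29; data are means ±S.E., two-tailed t-test.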
# IGF-II = test: PC-3 xenografts, Experiment 1: tumor IGF-II (RIA); format: in vivo, nude mice; settings: 10 μg/day s.c., 28 days
# Description: (§1) For the measurement of GH and IGF-I levels in the serum, as well as IGF-I and IGF-II concentrations in the cytosol fraction of tumors, blood samples and tumor samples were collected and processed as described (Braczkowski R, Schally A V, Plonowski A, Varga J L, Groot K, Krupa M, Armatis P, Cancer 95: 1735-1745, 2002), hereby incorporated by reference. Briefly, blood samples are centrifuged to separate the serum, tumors are homogenized and centrifuged to separate the cytosol fraction. Serum GH is then measured by the double-antibody RIA method. Before measurement by RIA, IGF-I and IGF-II are extracted from serum and cytosol fractions using an acid-ethanol cryoprecipitation method that eliminates most of the IGF binding proteins, which can interfere with the RIA. IGF-I concentration is measured by RIA using IGF-I as a standard and goat anti-IGF-I antibody (both from DSL Inc., Webster, Tex.). IGF-II concentration is measured by RIA using human recombinant IGF-II (Bachem) as a standard and anti-IGF-II monoclonal antibody (Amano International Enzyme, Troy, Va.).
# Male nude mice were implanted s.c. with 3 mm^3 pieces of PC-3 human hormone-independent prostate cancer tissue on both flanks. When tumors reached a volume of approx. 50 mm^3, the mice were divided into 5 experimental groups with 7 to 8 animals in each group and received single daily injections for 28 days as follows: 1. Control (vehicle solution); 2. JV-1-38 (10 μg/day s.c.); 3 Peptide 31 (10 μg/day s.c.); 4. Peptide 67 (10 μg/day s.c.); 5. Peptide 62 (10 μg/day s.c.). Tumor volumes were measured twice a week. The experiment was ended on day 29 by sacrificing the mice under Isoflurane anesthesia. Resulting tumors were cleaned, weighed, and snap-frozen until further analyses. Trunk blood was collected from the abdominal aorta and serum was separated for RIA measurement of IGF-I. Statistical analyses of the measurement results were done by two-tailed t-test; data are presented as the means±S.E.
# [4] = tested on: DMS-153 human SCLC xenografts; test: DMS-153 human SCLC xenografts in nude mice: tumor growth; format: in vivo
# Protocol: (§2) Male nude mice were implanted s.c. with 3 mm^3 pieces of DMS-153 human SCLC tissue. When tumors reached a volume of approx. 100 mm^3 the mice were divided into 3 experimental groups of 68 animals each and received the following treatment for 6 weeks group 1 (control), vehicle solution; group 2, Peptide 67 (10 μg/day s.c.); group 3, Peptide 31 (10 μg/day s.c.). Tumor volumes were recorded twice a week. At the end of treatment, mice were anesthetized with isoflurane, killed by decapitation, trunk blood was collected for measurement of serum IGF-I, and tumors were excised and weighed. Data are presented as means±S.E. Data were evaluated by one way ANOVA and the Student-Newman-Keuls test.
# IGF-I = test: DMS-153 human SCLC xenografts: serum IGF-I; format: in vivo, nude mice; settings: 10 μg/day s.c., 6 weeks
# Description: as §1, §2
# mRNA for IGF-II = test: DMS-153 human SCLC xenografts: expression of mRNA for IGF-II; format: in vivo, nude mice; settings: 10 μg/day s.c., 6 weeks, control group 100±1.5%
# Protocol: as §2
# [5] = tested on: H-69 human SCLC xenografts; test: H-69 human SCLC xenografts in nude mice: tumor growth; format: in vivo; settings: H-69
# Protocol: Male nude mice were implanted s.c. with 3 mm^3 pieces of H-69 human SCLC tissue. When tumors reached a volume of approx. 80 mm^3 the mice were divided into 4 experimental groups of 7-8 animals each and received the following treatment for 4 weeks: group I (control), vehicle solution; group 2, Peptide 67 (10 μg/day s.c.); group 3, Peptide 31 (10 μg/day s.c.); group 4, Peptide 72 (10 μg/day s.c.). Tumor volumes were recorded twice a week. At the end of treatment, mice were anesthetized with isoflurane, killed by decapitation, and tumors were excised and weighed. Data are presented as means±S.E. Data were evaluated by one way ANOVA and the Student-Newman-Keuls test.
# [6] = 10 μg/day s.c., 28 days, vs control
# [7] = 10 μg/day s.c., 6 weeks, vs control
compound,measurement,setting,value
"CCCC[C@H](NC(=O)[C@@H](NC(=O)[C@H](CC(=O)O)NC(=O)[C@H](CCC(N)=O)NC(=O)[C@H](CC(C)C)NC(=O)[C@H](CC(C)C)NC(=O)[C@H](CCCCN)NC(=O)[C@H](CCCNC(=N)N)NC(=O)[C@H](C)NC(=O)[C@H](CO)NC(=O)[C@H](CC(C)C)NC(=O)[C@H](CCC(N)=O)NC(=O)[C@H](CC)NC(=O)[C@H](CC(C)C)NC(=O)[C@@H](NC(=O)[C@H](CCCCN)NC(=O)[C@H](CCCNC(=N)N)NC(=O)[C@H](Cc1ccc(OC)cc1)NC(=O)[C@H](Cc1ccc(C(=N)N)cc1)NC(=O)[C@H](CC(N)=O)NC(=O)[C@@H](NC(=O)[C@H](Cc1ccc(Cl)cc1)NC(=O)[C@@H](NC(=O)[C@H](C)NC(=O)[C@H](CC(=O)O)NC(=O)[C@@H](CCCNC(=N)N)NC(=O)[C@H](Cc1ccc(O)cc1)NC(=O)Cc1ccccc1)[C@@H](C)CC)[C@@H](C)O)C(C)C)[C@@H](C)CC)C(=O)N[C@H](CCCNC(=N)N)C(=O)N[C@@H](CCCCNC(=N)N)C(N)=O [Peptide 67, [PhAc-Tyr^1, D-Arg^2, Phe(pCl)^6, Amp^9, Tyr(Me)^10, Abu^15, Nle^27, D-Arg^28, Har^29]hGH-RH(1-29)NH2] (PhAc-Y[dR]DAI[Phe(4-Cl)]TN[Phe(4-amidino)]Y(Me)RKVL[Abu]QLSARKLLQDI[Nle][dR][hArg]-NH2)",Final tumor volume (mm^3),[1],1218 ± 320* mm^3
same,Tumor weight,[1],1434 ± 405 mg
same,inhibition in the volumes of HT-29 tumors,[1]; vs control group,56.3%
same,inhibition in the weights of HT-29 tumors,[1]; vs control group,53.9%
same,binding affinities to the tumoral receptors for GH-RH (in words),[2],extremely high binding affinities
same,Tumor volume (mm^3) Final,"[3]; 10 μg/day s.c., 28 days",200 ± 39.5* mm^3
same,Tumor volume doubling time,"[3]; 10 μg/day s.c., 28 days",17.0 ± 3.51 days
same,Tumor weight,"[3]; 10 μg/day s.c., 28 days",150 ± 22.1 mg
same,Tumor volume Final (% inhibition),[3]; [6],(60%)
same,Tumor weight (% inhibition),[3]; [6],(60%)
same,inhibitory effect on the growth of PC-3 tumors (in words),"[3]; 10 μg/day s.c., compared with JV-1-38",stronger inhibitory effect on the growth of PC-3 tumors than the reference peptide JV-1-38
same,Tumor volume (mm^3) Initial,[3]; at start of treatment,46.8 ± 8.11 mm^3
same,Tumor IGF-II (pg/mg protein),IGF-II,139 ± 69.2 pg/mg protein
same,Tumor IGF-II (% inhibition),IGF-II; vs control,(37%)
same,Tumor volume (mm^3) Final,"[4]; 10 μg/day s.c., 6 weeks",2650 ± 30* mm^3
same,Tumor weight,"[4]; 10 μg/day s.c., 6 weeks",1.60 ± 0.19 g
same,Tumor volume Final (% inhibition),[4]; [7],(28%)
same,Tumor weight (% inhibition),[4]; [7],(31%)
same,Tumor volume (mm^3) Initial,[4]; at start of treatment,132 ± 24 mm^3
same,Serum IGF-I,IGF-I,117.9 ± 17.2 ng/mL
same,Serum IGF-I (% inhibition),IGF-I; vs control,(30%)
same,level of expression of mRNA for IGF-II,mRNA for IGF-II,78.0±44.3%
same,Tumor volume (mm^3) Final,"[5]; 10 μg/day s.c., 4 weeks",501 ± 35* mm^3
same,Tumor volume Final (% inhibition),"[5]; 10 μg/day s.c., 4 weeks, vs control",(76%)
same,Tumor volume (mm^3) Initial,[5]; at start of treatment,82 ± 10 mm^3
